Reference: ChEMBL document CHEMBL3593219, “Sesquiterpenes with TRAIL-resistance overcoming activity from Xanthium strumarium” (Bioorg Med Chem, 2015)
The source made the active and inactive calls. The rule behind the calls is not given here.

Columns and labels:
[1] = system: AGS; assay: Inhibition of TRAIL-resistance in human AGS cells assessed as inhibition of cell viability at 30 uM incubated for 24 hrs in presence of 100 ng/ml TRAIL by FMCA method relative to TRAIL alone; format: functional
[2] = system: AGS; assay: Inhibition of TRAIL-resistance in human AGS cells assessed as inhibition of cell viability at 10 uM incubated for 24 hrs in presence of 100 ng/ml TRAIL by FMCA method relative to TRAIL alone; format: functional
[3] = system: AGS; assay: Inhibition of TRAIL-resistance in human AGS cells assessed as inhibition of cell viability at 20 uM incubated for 24 hrs in presence of 100 ng/ml TRAIL by FMCA method relative to TRAIL alone; format: functional
[4] = system: AGS; assay: Increase in DR5 protein expression in human AGS cells incubated for 24 hrs by Western blotting method; format: functional, cell-based
[5] = system: AGS; assay: Inhibition of TRAIL-resistance in human AGS cells assessed as inhibition of cell viability at 12 uM incubated for 24 hrs in presence of 100 ng/ml TRAIL by FMCA method relative to TRAIL alone; format: functional
[6] = system: AGS; assay: Increase in CHOP protein expression in human AGS cells incubated for 24 hrs by Western blotting method; format: functional, cell-based
[7] = system: AGS; assay: Increase in caspase-3 protein expression in human AGS cells incubated for 24 hrs by Western blotting method; format: functional, cell-based
[8] = system: DU-145; assay: Inhibition of TRAIL-resistance in human DU145 cells assessed as inhibition of cell viability at 4 to 12 uM incubated for 24 hrs in presence of 100 ng/ml TRAIL by FMCA method relative to TRAIL alone; format: functional, cell-based
[9] = system: MCF7; assay: Inhibition of TRAIL-resistance in human MCF7 cells assessed as inhibition of cell viability at 4 to 12 uM incubated for 24 hrs in presence of 100 ng/ml TRAIL by FMCA method relative to TRAIL alone; format: functional, cell-based
[10] = system: HeLa; assay: Inhibition of TRAIL-resistance in human HeLa cells assessed as inhibition of cell viability at 4 to 12 uM incubated for 24 hrs in presence of 100 ng/ml TRAIL by FMCA method relative to TRAIL alone; format: functional, cell-based
[11] = system: AGS; assay: Inhibition of TRAIL-resistance in human AGS cells assessed as inhibition of cell viability at 4 uM incubated for 24 hrs in presence of 100 ng/ml TRAIL by FMCA method relative to TRAIL alone; format: functional
[12] = system: AGS; assay: Increase in DR4 protein expression in human AGS cells at 8 uM incubated for 3 to 12 hrs by Western blotting method; format: functional, cell-based; details: TDE = time-dependent effect
[13] = system: AGS; assay: Increase in cleaved caspase-8 protein expression in human AGS cells at 8 uM incubated for 24 hrs in presence of 100 ng/ml TRAIL by Western blotting method relative to TRAIL alone; format: functional
[14] = system: AGS; assay: Increase in cleaved caspase-9 protein expression in human AGS cells at 8 uM incubated for 24 hrs by Western blotting method; format: functional
[15] = system: AGS; assay: Increase in cleaved caspase-9 protein expression in human AGS cells at 8 uM incubated for 24 hrs in presence of 100 ng/ml TRAIL by Western blotting method relative to TRAIL alone; format: functional
[16] = system: AGS; assay: Increase in DR5 protein expression in human AGS cells at 8 uM incubated for 3 to 12 hrs by Western blotting method; format: functional, cell-based; details: TDE = time-dependent effect
[17] = system: AGS; assay: Increase in caspase-3 protein expression in human AGS cells at 8 uM incubated for 24 hrs in presence of 100 ng/ml TRAIL by Western blotting method; format: functional
[18] = system: AGS; assay: Increase in caspase-3 protein expression in human AGS cells at 8 uM incubated for 24 hrs in presence of 100 ng/ml TRAIL by Western blotting method relative to TRAIL alone; format: functional
[19] = system: AGS; assay: Inhibition of TRAIL-resistance in human AGS cells assessed as inhibition of cell viability at 8 uM incubated for 24 hrs in presence of 100 ng/ml TRAIL by FMCA method relative to TRAIL alone; format: functional
[20] = system: AGS; assay: Increase in cleaved caspase-9 protein expression in human AGS cells at 8 uM incubated for 24 hrs in presence of 100 ng/ml TRAIL by Western blotting method; format: functional
[21] = system: AGS; assay: Increase in cleaved caspase-8 protein expression in human AGS cells at 8 uM incubated for 24 hrs in presence of 100 ng/ml TRAIL by Western blotting method; format: functional
[22] = system: AGS; assay: Increase in cleaved caspase-8 protein expression in human AGS cells incubated for 24 hrs by Western blotting method; format: functional, cell-based
[23] = system: DLD-1; assay: Inhibition of TRAIL-resistance in human DLD1 cells assessed as inhibition of cell viability at 4 to 12 uM incubated for 24 hrs in presence of 100 ng/ml TRAIL by FMCA method relative to TRAIL alone; format: functional, cell-based
[24] = system: AGS; assay: Increase in p53 protein expression in human AGS cells incubated for 24 hrs by Western blotting method; format: functional, cell-based
[25] = system: AGS; assay: Decrease in Bcl2 protein expression in human AGS cells incubated for 24 hrs by Western blotting method; format: functional, cell-based
[26] = system: AGS; assay: Increase in Bax protein expression in human AGS cells at incubated for 24 hrs by Western blotting method; format: functional, cell-based
[27] = system: AGS; assay: Increase in DR4 protein expression in human AGS cells incubated for 24 hrs by Western blotting method; format: functional, cell-based
[28] = system: AGS; assay: Increase in cleaved caspase-9 protein expression in human AGS cells at 4 to 12 uM s by Western blotting method; format: functional, cell-based
[29] = system: AGS; assay: Increase in cleaved caspase-8 protein expression in human AGS cells at 8 uM incubated for 24 hrs by Western blotting method; format: functional
[30] = system: AGS; assay: Increase in caspase-3 protein expression in human AGS cells at 8 uM incubated for 24 hrs by Western blotting method; format: functional
[31] = system: HEK293; assay: Inhibition of TRAIL-resistance in HEK293 cells assessed as inhibition of cell viability at 4 to 8 uM incubated for 24 hrs in presence of 100 ng/ml TRAIL by FMCA method relative to TRAIL alone; format: cell-based; details: human, hek293, 24 h
[32] = system: AGS; assay: Inhibition of TRAIL-resistance in human AGS cells assessed as inhibition of cell viability at 24 uM incubated for 24 hrs in presence of 100 ng/ml TRAIL by FMCA method relative to TRAIL alone; format: functional
[33] = system: AGS; assay: Inhibition of TRAIL-resistance in human AGS cells assessed as inhibition of cell viability at 16 uM incubated for 24 hrs in presence of 100 ng/ml TRAIL by FMCA method relative to TRAIL alone; format: functional
[34] = system: AGS; assay: Increase in cleaved caspase-3 protein expression in human AGS cells at 16 uM incubated for 24 hrs in presence of 100 ng/ml TRAIL by Western blotting method; format: functional
[35] = system: AGS; assay: Increase in cleaved caspase-8 protein expression in human AGS cells at 16 uM incubated for 24 hrs by Western blotting method; format: functional
[36] = system: AGS; assay: Increase in cleaved caspase-9 protein expression in human AGS cells at 16 uM incubated for 24 hrs in presence of 100 ng/ml TRAIL by Western blotting method; format: functional
[37] = system: AGS; assay: Increase in cleaved caspase-8 protein expression in human AGS cells at 16 uM incubated for 24 hrs in presence of 100 ng/ml TRAIL by Western blotting method; format: functional
[38] = system: AGS; assay: Increase in cleaved caspase-9 protein expression in human AGS cells at 16 uM incubated for 24 hrs by Western blotting method; format: functional
[39] = system: AGS; assay: Increase in cleaved caspase-9 protein expression in human AGS cells at 16 uM incubated for 24 hrs in presence of 100 ng/ml TRAIL by Western blotting method relative to TRAIL alone; format: functional
[40] = system: AGS; assay: Increase in cleaved caspase-8 protein expression in human AGS cells at 16 uM incubated for 24 hrs in presence of 100 ng/ml TRAIL by Western blotting method relative to TRAIL alone; format: functional
[41] = system: AGS; assay: Increase in cleaved caspase-3 protein expression in human AGS cells at 16 uM incubated for 24 hrs by Western blotting method; format: functional
[42] = system: AGS; assay: Increase in cleaved caspase-3 protein expression in human AGS cells at 16 uM incubated for 24 hrs in presence of 100 ng/ml TRAIL by Western blotting method relative to TRAIL alone; format: functional

| Structure (SMILES) | inhibition (INH) [1] | inhibition (INH) [2] | inhibition (INH) [3] | Activity [4] | Activity [6] | Activity [7] | inhibition (INH) [19] | Activity [22] | Activity [24] | Activity [25] | Activity [26] | Activity [27] | Activity [28] | inhibition (INH) [32] | inhibition (INH) [33] | further results |
| --- | --- | --- | --- | --- | --- | --- | --- | --- | --- | --- | --- | --- | --- | --- | --- | --- |
| CC(O)CCC1=CC[C@H]2[C@H](C[C@@H]1C)OC(=O)[C@H]2C (stereo partly drawn) | 34% | 30% | 51% |  |  |  |  |  |  |  |  |  |  |  |  |  |
| C=C1C(=O)O[C@H]2C[C@H](C)C(CCC(C)=O)=CC[C@H]12 |  |  |  | Dose-dependent effect | Dose-dependent effect | Dose-dependent effect | 44% | Dose-dependent effect | Dose-dependent effect | Dose-dependent effect | Dose-dependent effect | Dose-dependent effect | Dose-dependent effect |  |  | inhibition (INH) [5]: 24%; inhibition [8]: Active; inhibition [9]: Active; inhibition [10]: Active; inhibition (INH) [11]: 32%; Activity [12]: tde; Activity [13]: 20%; Activity [14]: 20%; Activity [15]: 20%; Activity [16]: tde; Activity [17]: 100%; Activity [18]: 65%; Activity [20]: 100%; Activity [21]: 100%; inhibition [23]: Active; Activity [29]: 10%; Activity [30]: 25%; Activity [31]: Non-toxic |
| CC(=O)CCC1=CC[C@H]2[C@H](C[C@@H]1C)OC(=O)[C@H]2C | 36% | 19% | 61% |  |  |  |  |  |  |  |  |  |  |  |  |  |
| C=C1C(=O)O[C@H]2C[C@H](C)C(CCC(C)O)=CC[C@H]12 (stereo partly drawn) |  |  |  |  |  |  | 23% |  |  |  |  |  |  | 35% | 48% |  |
| COc1ccc(C(=O)O[C@@H]2C=C(C)CC[C@@]3(O)[C@@H](C(C)C)CC[C@]23C)cc1 |  |  |  | Dose-dependent effect | Dose-dependent effect | Dose-dependent effect | 15% | Dose-dependent effect | Dose-dependent effect | Dose-dependent effect | Dose-dependent effect | Dose-dependent effect | Dose-dependent effect | 56% | 61% | Activity [34]: 100%; Activity [35]: 10%; Activity [36]: 100%; Activity [37]: 100%; Activity [38]: 15%; Activity [39]: 20%; Activity [40]: 50%; Activity [41]: 5%; Activity [42]: 70% |
